From patent publication US20080014149A1, “Methods and Compositions for Imaging and Biomedical Applications” (priority 2004, published 2008)
Read-outs that look alike come from different tables or passages of the source.

How the values were obtained:
[1] = R1 and R2 relaxivity from water T1/T2 measurements by NMR; assay type: physicochemical; settings: for R1: deuterium oxide, Unity-600 MHz, 25±0.1° C.
Method: The R2 and R1 of 19a and 18a were calculated to show cleavage of the T2/T1 quenching detectable construct 19a generated a large enough change in R2 to allow for enzyme detection. The compound 19a represents an intact T2/T1 quenching detectable construct and the compound 18a represents a polymeric gadolinium detectable construct remainder resulting from cleavage of the reaction region. The R1 and R2 of 19a and 18a were measured in deuterium oxide in a Unity-600 MHz (Varian, Inc.) at 25±0.1° C. T1 and T2 measurements of water relaxation times were measured at various concentrations of 19a and 18a, and a plot of 1/T1 and 1/T2 was made against the concentration; the relaxivities R1 and R2 were determined by the slope of this graph using equation 1 (Caravan 1991), [formula] where 1/T1 is the relaxation rate of the water proton induced by the paramagnetic and diamagnetic species present in solution, and 1/T1 (diamagnetic) is the relaxation rate in the absence of the paramagnetic species. R1 and R2 of 18a were calculated to be 3.34 mM^−1s^− and 6.8 mM^−1s^−1 and the R1 and R2 of 19a were 4.0 mM^−1s^−1 and 21.77 mM^−1s^−1 (see FIG. 19).

[2] = Imaging DTT with 19b and 25 in agarose gels (MRI); settings: 0.5 mM in 2% agarose hydrogels, 50 mM DTT, vials filled with PBS
Method: The T2/T1 quenching detectable constructs 19b and 25 are loaded into 2% agarose hydrogels at a concentration of 0.5 mM. The hydrogels have a volume of 0.5 ml and are made in 10 ml scintillation vials. After the hydrogels form, the vials are filled with PBS buffer, pH 7.4, and then imaged in either a 9.4 Tesla MRI machine or a 17.8 Tesla MRI machine (University of Florida). The best TR/TE parameters are selected from calculations using the spin-echo signal equation with respect to the relaxation times and the TR/TE. The TE and TR are chosen such that the signal intensity of the hydrogels loaded with 19b and 25 is lower than or equal to pure agarose hydrogels. These calculations are based on the R1 and R2 of 19b and 25. DTT is added to the scintillation vials to generate a 50 mM concentration of DTT in the vials. The control hydrogels for this experiment consist of hydrogels that contain 50 mM DTT, without 19b or 25. The signal intensity of the gels is measured every hour for 48 hours. The T1 and the T2 of the gels is measured every hour, the T1 is measured using an inversion recovery sequence, for which the sequence parameters will be selected based on the values of R1 and R2 of 19b and 25. The T2 will be measured using a Carr-Purcell-Meiboom-Gill (CPMG) sequence with TEs chosen from the values of R2 for 19b and 25 (Haacke 1999).

[3] = Water exchange rate of dysprosium chelate; assay type: physicochemical
Source text: This is a derivative form of DTPA. The chelator molecule of this example is considered a modification of the detectable detectable agent, wherein the chelator molecule has substitutions. The R2 of dysprosium chelates is inversely proportional to the water exchange rate, particularly for macromolecular dysprosium chelates at high field strengths (Vander 2002 and Caravan 2001) The dysprosium chelate detectable construct remainder in 25 has a greater R2 than the dysprosium chelate detectable construct remainder in 19b and also generates a larger change in tissue T2 after cleavage and diffusion away from the polymeric gadolinium detectable construct remainder. The R1 and R2 of 25 is determined using a 600 MHz NMR machine as described in Example 2.

[4] = Imaging DTT with 33 in agarose hydrogels (MRI); settings: vials not filled with buffer
Method: An experimental procedure similar to that outlined in Example 4 is used to image DTT, except that the hydrogels are loaded with compound 33. The scintillation vials which contain the gels are not filled with buffer. This ensured that the cleaved dysprosium remains in the gel and that changes in T2 and signal intensity are due to changes in the rotational correlation time of dysprosium. The DTT is directly added to hydrogels as a concentrated solution. The gels are analyzed in a manner similar to Example 4. The control for this experiment is agarose hydrogels that just contain DTT. […] Problems with synthesis of 33 due to its high polydispersity may result from the free radical polymerization used to generate 28. This problem can be solved by using atom transfer radical polymerization (ATRP) to synthesize 28, using a protected methacrylic acid monomer and an (ATRP) initiator with a functional handle.

[5] = test system: T1, PEG-Peptide-DTPA-Dy containing MMP-7 substrate peptide-DTPA
T1 sequence: RPLALWRSGCG

[6] = Diffusion coefficient in water (literature); assay type: physicochemical
Source text: Another example of a detectable construct of the present invention is shown in FIG. 15, wherein the detectable construct comprises a first detectable agent, comprising a metal ion and a chelator, covalently bonded to a linking region comprising PEG(polyethylene glycol) MW 80 kD, which is covalently bonded to a reaction region that is a substrate that can be cleaved by an enzyme or chemical process, which is covalently bonded to a second detectable agent comprising a chelator and a metal ion. In this particular example, the first detectable agent is Gadolinium associated with the chelator DTPA, and the second detectable agent is Dysprosium associated with the chelator DTPA. This detectable construct can be used in a method based upon the counteracting effects of T1 and T2 contrast agents on MRI signal intensity. Gadolinium is the T1 contrast agent and dysprosium is the T2 contrast agent. The dysprosium detectable agent is connected to the PEG chain through a cleavable linkage, such as a disulfide bond or an enzyme cleavable peptide linkage. Cleavage of 3a generates a low molecular weight dysprosium detectable construct remainder (4) and a high molecular weight PEG gadolinium detectable construct remainder. […]
At present, tumors can only be detected after they reach mm-cm dimensions. […]

[7] = in water, cited from earlier work
MMP-9 = MMP-9 (Homo sapiens, UniProt P14780); assay: Imaging MMP-9 with 40 and 42 in agarose gels (MRI); assay type: biochemical; settings: agarose hydrogels
Sequence of MMP-9 (P14780 94-707, species assumed): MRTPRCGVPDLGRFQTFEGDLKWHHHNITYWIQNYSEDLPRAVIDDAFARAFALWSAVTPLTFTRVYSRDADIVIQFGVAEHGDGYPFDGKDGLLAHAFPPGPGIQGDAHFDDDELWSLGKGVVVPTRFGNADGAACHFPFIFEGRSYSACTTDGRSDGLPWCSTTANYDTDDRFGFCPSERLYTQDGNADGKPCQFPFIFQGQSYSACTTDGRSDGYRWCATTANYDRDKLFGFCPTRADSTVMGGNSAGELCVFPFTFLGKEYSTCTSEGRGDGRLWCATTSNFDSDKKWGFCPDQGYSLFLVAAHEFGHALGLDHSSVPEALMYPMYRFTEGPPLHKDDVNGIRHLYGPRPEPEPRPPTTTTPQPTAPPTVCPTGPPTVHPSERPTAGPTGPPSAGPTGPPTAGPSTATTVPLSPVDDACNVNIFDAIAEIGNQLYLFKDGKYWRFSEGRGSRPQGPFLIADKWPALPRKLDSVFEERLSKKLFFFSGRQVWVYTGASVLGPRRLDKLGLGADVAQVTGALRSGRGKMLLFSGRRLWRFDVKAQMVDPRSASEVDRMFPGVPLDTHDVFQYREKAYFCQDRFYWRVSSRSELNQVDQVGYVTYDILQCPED

[8] = test system: MMP-7 expressing SW480mat xenograft tumors; assay: In vivo imaging of MMP-7 activity in mouse xenograft tumors (MRI); design: species or system athymic nude mice; settings: expectation; mice with MMP-7 expressing tumors, 9.4 Tesla
Source text: MMP-7 activity is imaged in athymic nude mice which have been given MMP-7 expressing xenograft tumors, using the T2/T1 quenching detectable construct, gadolinium-PEG-RPLALWRSC-dysprosium (46, FIG. 26). This compound contains a reaction region that is the MMP-7 cleavage site, RPLALWRSC, (SEQ ID NO: 2). […] See FIG. 26 for the synthesis of 46.
The resulting tumors are allowed to grow up to a size of 1-2 cm (4-6 weeks). During this period, the mice are imaged at various times points ranging from 3 days to 6 weeks after the injection of the tumor cells, according to the following procedure: after proper anesthetization, a catheter is inserted into the tail vein of the mice, a composition comprising the detectable construct 46 is injected through the catheter and the mice are imaged every hour for 24 hours in a 9.4 Tesla MRI machine (Emory University), measuring the MRI signal intensity, tissue T1 and tissue T2.
The signal intensity and T2 of the MMP-7 expressing tumors is compared against the control tumors. If the signal intensity of the MMP-7 expressing tumors is greater than the controls, then MMP-7 successfully cleaved 46, resulting in an increase in MRJ signal intensity and the imaging of MMP-7. Furthermore, data is obtained relating to the sensitivity of the method to image early tumor activity, as well as ratiometric information relating to tumor growth.

[9] = test system: trypsin Dy only detectable construct (cleavable PEG-peptide-dysprosium, FIG. 24)
[10] = listed as DTPA-Dy detectable construct remainder

Gadolinium-PEG-S—S-Dysprosium [Compound 19a]
decrease in R1 between 19a and 18a ([1]; 19a versus 18a): 16.5%
R1 [1]: 4.0 mM⁻¹ s⁻¹

Gadolinium-PEG-S—S-Dysprosium [Compound 19b]
MRI signal intensity of agarose gels after addition of DTT [2]: increases the signal intensity

Gadolinium-PEG-S—S-Dysprosium-Diamide [Compound 25]
water exchange rate τm, times lower than the dysprosium chelate in 19b [3]: 34 times
MRI signal intensity of agarose gels after addition of DTT [2]: increases the signal intensity

Gadolinium-Poly(Methacrylic Acid)-PEG-S—S-Dysprosium [Compound 33]
MRI signal intensity of agarose gels after addition of DTT [4]: increases the signal intensity

MMP-7
T2 signal (NMR in D2O buffer, 37 C, 4.5 hours) [5]: upon treatment of micelles with MMP-7 that the T2 signal increase by over two-fold

Thiol-PEG-DTPA-Gd [Compound 18a]
R1 [1]: 3.34 mM⁻¹ s⁻¹

dysprosium-diethylenetriaminepentaacetic (DTPA) [DTPA-dysprosium]
ratio of diffusion coefficient to that of PEG 80 kD [6]: 17 fold
ratio of diffusion coefficient to that of PEG 80 kD [6, 10]: roughly 17 fold
diffusion coefficient Dwater [7]: 3.8×10^−6 cm^2/s
diffusion coefficient Dwater [7, 10]: approximately 3.8×10^−6 cm^2/s

gadolinium-PEG-Pro-Val-Gly-Leu-Ile-Gly-dysprosium [Compound 40]
MRI signal intensity on cleavage by MMP-9 (MMP-9): increase in signal intensity

gadolinium-PEG-RPLALWRSC-dysprosium [Compound 46]
MRI signal intensity on cleavage by MMP-7 [8]: increase in MRI signal intensity

gadolinium-poly(methacrylic acid)-Pro-Val-Gly-Leu-Ile-Gly-dysprosium [Compound 42]
MRI signal intensity on cleavage by MMP-9 (MMP-9): increased signal intensity

trypsin
water T2 (400 MHz NMR in D2O), construct 16 mg/ml, trypsin 0.025 mg/ml [9]: After adding trypsin, T2 increases by 52.3%
